Data on five molecules can be found in patent US9522130B2, “Use of miR-221 and 222 lowering agents to prevent cardiovascular disease in diabetic subjects” (priority 2013, dated 2016).

Entries after “also recorded” stand apart in the source; their conditions may differ.

The test system of data set [1] is miR-221/222. The data set is described as follows: miR-221 and miR-222 levels in injured femoral arteries by quantitative real-time PCR. Format: in vivo. Conditions: diabetic mice; Pluronic gel on injured femoral artery; 7 days. The procedure: FIG. 7. Diabetes induces an increase in miR-221/222 levels in arteries. Total RNA was prepared from injured femoral arteries of diabetic and non-diabetic mice receiving a Pluronic gel containing either control oligonucleotide (NT) or 2′OMe-miR-222 (AS) for 7 days. Levels of miR-221 and miR-222 were measured using quantitative real-time PCR with U6 as a loading control. Data is normalized to the ND. Data represent the mean±SEM and † indicates p<0.05 by ANOVA using Tukey's HSD.
(Real-time PCR tracks product formation cycle by cycle.)

The test system of the next data set is p27^Kip1. The data set is described as follows: p27Kip1 protein ELISA in injured femoral arteries. In kind it is in vivo. Conditions: diabetic mice; Pluronic gel on injured femoral artery; 7 days. As to the method:
FIG. 9. Diabetes induces an increase in miR-221/222 that reduces p27^Kip1 levels in arteries Protein lysates were prepared from injured femoral arteries of diabetic and non-diabetic mice receiving a Pluronic gel containing either control oligonucleotide (NT) or 2′OMe-miR-222 (AS) after 7 days. Levels of p27^Kip1 protein levels were measured using an ELISA kit. Data is normalized to the ND. Data represent the mean±SEM and † indicates p<0.05 by ANOVA using Tukey's HSD.
For orientation: An ELISA detects its analyte on a solid surface through an enzyme-linked reagent.

Data set [2] relates to diabetic and non-diabetic mice. Put plainly: Femoral artery wire injury, neointima formation / intimal thickening. Format: in vivo. As to the method:
FIG. 1. Neointimal hyperplasia is increased in an mTOR-independent manner in diabetic mice. Femoral artery wire injury was performed in the mice in diabetic mice (DM) and non-diabetic mice […] and neointima formation was assessed at 14 days post-injury. […] Data represent the mean±SEM. † indicates p<0.05 by ANOVA with Tukey's HSD.
FIG. 10. Diabetes induces an increase in miR-221/222 that increases intimal thickening. Intimal thickening was measured in the wire injured femoral arteries of diabetic and non-diabetic mice receiving a Pluronic gel containing either control oligonucleotide (NT) or 2′OMe-miR-222 (AS) after 14 days. Data represent the mean±SEM and † indicates p<0.05 by ANOVA using Tukey's HSD.
FIG. 14. […] Mean intima:media ratios of ND and DM mice following femoral artery wire injury and implantation of a Pluronic-F 127 gel containing either vehicle or rapamycin (100 μg) with and without administration of the ERK pathway inhibitor, U0126 (7.5 mg/kg/d). Bars indicate p<0.05 by ANOVA.

Data set [3] concerns miR-221/222. The data set is described as follows: miR-221/222 levels in VSMCs incubated with AMPK agonist. In kind it is cell-based. Conditions: VSMCs from diabetic mice; 3 h incubation. As to the method:
FIG. 11. The increase in miR-221/222 in VSMCs from the DM mice is reversed by AMPK activation. miR-221/222 levels were measured in VSMCs from non-diabetic and diabetic mice incubated with vehicle (Con) and the AMPK agonist, Metformin (Met) for 3 h. Data represent the mean±SEM.
FIG. 12. The increase in miR-221/222 in VSMCs from the DM mice is reversed by AMPK activation. miR-221/222 levels were measured in VSMCs from non-diabetic and diabetic mice incubated with vehicle (Con) and the AMPK agonist, AICAR for 3 h. Data represent the mean±SEM.

In a further data set the test system is p27^Kip1 mRNA. The data set is described as follows: Half-life of p27Kip1 mRNA in serum-stimulated VSMCs. In kind it is cell-based. As to conditions: VSMCs from diabetic mice stimulated with serum. The procedure:
FIG. 4. Increased ERK activation promotes loss of p27^Kip1 in diabetic mice. A) The ratio of phosphorylated (active) ERK to total ERK in the aortae of non-diabetic (ND) mice and diabetic mice receiving either vehicle (DM) or the ERK pathway inhibitor (DM+EI) U0126, ip, 7.5 mg/kg/d for 3 days). p27^Kip1 protein (B) and mRNA (C) levels in the same mice as in A. D and E) The half-life of p27^Kip1 mRNA in VSMCs from DM and ND mice stimulated with serum with and without the ERK pathway inhibitor PD98059 (D,PD) or siRNA targeting ERK (E, ERK siRNA). † indicate p<0.05 by ANOVA (B and D) or Student's t-test (E and F).

In a further data set the test system is non-diabetic animals. As to conditions: previous reports (9); cited from earlier work.
Data set [4] deals with miR-221/222. Conditions: diabetic mice; 3 d post-injury or sham. The procedure: FIG. 6. […] Femoral artery wire injury or sham procedure was performed in the non-diabetic (ND) and diabetic (DM) mice and miR-221 levels were measured 3d post-injury. A group of MF-12 mice (Sham+EI) received a MEK1 inhibitor (U0126, […]). Data represent the mean±SEM.
Data set [5] concerns miR-221/222. Put plainly: miR-221/222 levels in internal mammary arteries of coronary artery bypass patients by real-time PCR. Format: in vivo, human. As to conditions: diabetic patients currently taking metformin (DMMet+), coronary artery bypass surgery. The procedure:
FIG. 13. miR-221/222 are reduced in the vasculature of diabetic patients taking the AMPK agonist metformin. miR-221/222 levels were measured using real-time PCR methods in the internal mammary arteries of non-diabetic (ND), diabetic subjects currently taking metformin (DMMet+), and diabetic subjects not taking metformin (DMMet−) undergoing coronary artery bypass surgery. […] Data represent the mean±SEM.

For “2′OMe-miR-222: silencing RNA, 2′-O-methylated, directly inhibiting miR-221/222; sequence 5′-ACCCAGUAGCCAGAUGUAGCU-3′ (likely SEQ ID NO 4) (all 2'-O-methyl, backbone not given here)”, the “miR-221/222 levels in the vasculature” value in the data set on miR-221/222 [1] is on record as “reduces miR-221/222 levels back to normal”. In the data set on p27^Kip1, the p27Kip1 protein levels result is listed as “restores levels of p27^Kip1 protein to normal levels”. In data set [2] (diabetic mice, Pluronic gel on wire injured femoral artery, 14 days), the intimal thickening result was “effective at reducing intimal thickening in the diabetic mice to levels similar to that of normal mice”.
In the case of `NC(=O)c1ncn([C@@H]2O[C@H](CO)[C@@H](O)[C@H]2O)c1N` [AICAR], the “miR-221/222 levels in VSMCs” value in the data set with miR-221/222 [3] is “effective in reducing miR-221/222 in the VSMCs from diabetic mice to levels similar to VSMCs from non-diabetic mice”.
For the molecule `COc1cccc(-c2cc(=O)c3ccccc3o2)c1N` [PD98059], in the data set on p27^Kip1 mRNA, the “accelerated degradation (half-life) of p27Kip1 mRNA” value is listed as “effective at blocking the accelerated degradation”. Also, in the data set on non-diabetic animals, the “cell proliferative aspect of intimal thickening following arterial injury” value is on record as “not effective”.
For `N#CC(=C(/N)Sc1ccccc1N)/C(C#N)=C(\N)Sc1ccccc1N` [U0126], the “increase in miR-221/222 levels in the vasculature” value in the data set with miR-221/222 [4] is recorded as “blocked”. Moreover, the “intimal hyperplasia following wire injury” value in data set [2] (diabetic mice, U0126 7.5 mg/kg/d) is given as “reduces intimal hyperplasia”. Further, the “sensitivity of intimal thickening to rapamycin” value in data set [2] (diabetic mice, U0126 7.5 mg/kg/d co-administered with local rapamycin 100 μg, 7.5 mg/kg/day) is “restores sensitivity to rapamycin; also recorded: restores the ability of rapamycin to intimal thickening”. In addition, in data set [2] (non-diabetic mice, U0126 7.5 mg/kg/d co-administered with local rapamycin), the “intimal thickening (intima:media ratio)” value is on record as “minimal effects”.
`CN(C)C(=N)N=C(N)N` [metformin]: the “miR-221/222 levels in VSMCs” value with miR-221/222 [3] is on record as “effective in reducing miR-221/222 in the VSMCs from diabetic mice to levels similar to VSMCs from non-diabetic mice”. In addition, the “miR-221/222 levels in internal mammary arteries” value in the data set on miR-221/222 [5] is reported as “normal levels”.
